Measurements taken from patent US5268282A, “Cyclic FR-900520 microbial biotransformation agent” (Merck & Co., Inc., priority 1992, dated 1993).
“Also recorded” adds a separate entry of the source.

Assays:
[1] = system: splenic T-cells (mouse T lymphocytes); experiment: T-cell proliferation assay (ionomycin + PMA induced T-cell stimulation, tritiated thymidine uptake); assay type: cell-based, mouse (C57Bl/6)
Protocol: The principle of this assay is to measure the proliferation of mouse T lymphocytes stimulated with the combination of ionomycin plus PMA.
Cells were pelleted by centrifugation at 1500 rpm for 8 minutes. Contaminating red cells were removed by treating the pellet with ammonium chloride lysing buffer (GIBCO) for 2 minutes at 4° C. Cold medium was added and cells were again centrifuged at 1500 rpm for 8 minutes. T lymphocytes were then isolated by separation of the cell suspension on nylon wool columns as follows: Nylon wool columns were prepared by packing approximately 4 grams of washed and dried nylon wool into 20 ml plastic syringes. The columns were sterilized by autoclaving at 250° F. for 30 minutes. Nylon wool columns were wetted with warm (37° C.) culture medium and rinsed with the same medium. Washed spleen cells resuspended in warm medium were slowly applied to the nylon wool. The columns were then incubated in an upright position at 37° C. for 1 hour. Non-adherent T lymphocytes were eluted from the columns with warm culture medium and the cell suspensions were spun as above.
The cell suspension was immediately distributed into 96 well flat-bottom microculture plates (Costar) at 200 μl/well. […] Radioactivity of filter discs corresponding to individual wells was measured by standard liquid scintillation counting methods (Betacounter). Mean counts per minute of replicate wells were calculated and the results expressed as percent inhibition of tritiated thymidine uptake (proliferation) as follows: [formula]

[2] = immunosuppressant; EPO Publication No. 0184162; cited from earlier work
[3] = Solubility (physical characteristics); assay type: physicochemical; conditions: methanol

Q: For `C=CCC1C=C(C)CC(C)CC(OC)C2OC(O)(C(=O)C(=O)N3CCCCC3C(=O)OC(C(C)=CC3CCC(O)C(OC)C3)C(C)C(O)CC1=O)C(C)CC2OC` (stereo not drawn) [FR 900506, reference compound], which inhibition at 0.01 µg/mL ([1]; Mus musculus, T-cell, read-out: inhibition by the standard) is on record?
A: Its inhibition at 0.01 µg/mL is 99%.

Q: Which “times more effective than cyclosporin (reputed)” value [2] does the source give for `C=CC[C@@H]1/C=C(\C)C[C@H](C)C[C@H](OC)[C@H]2O[C@@](O)(C(=O)C(=O)N3CCCC[C@H]3C(=O)O[C@H](/C(C)=C/[C@@H]3CC[C@@H](O)[C@H](OC)C3)[C@H](C)[C@@H](O)CC1=O)[C@H](C)C[C@@H]2OC` [FK-506] here?
A: The value was 100 times.

Q: What does the source list for `CC[C@@H]1C=C2COC1(O)C[C@H](O)[C@@H](C)[C@@H](/C(C)=C/[C@@H]1CC[C@@H](O)[C@H](OC)C1)OC(=O)[C@@H]1CCCCN1C(=O)C(=O)[C@]1(O)O[C@H]([C@@H](OC)C[C@@H](C)C2)[C@@H](OC)C[C@H]1C` [Compound I]?
A: Inhibition of T-cell proliferation upon addition of IL2 ([1]; 50 units/ml recombinant IL2 added at the initiation of culture): reversed; IC50 ([1]; Mus musculus, T-cell, based on a series of 5 additional experiments, read-out: IC50, generally in the range of): 1.57 to 5.2 ng/mL; immunosuppressant activity (inhibition of T-cell activation / T-cell proliferation assay) ([1]; result in words): positive inhibition of T-cell activation; also recorded: positive immunosuppressive activity; Solubility [3]: Solubility in methanol
